The record followed here is patent US20230165252A1, “ACTIVE COMPOUND COMBINATIONS” (Bayer Aktiengesellschaft, priority 2020, published 2023).

Several values for one entry are separate records, joined by “and”; a condition that tells them apart may be missing. Identical values can stand only once.

For one data set, the system named is Alternaria alternate. Put plainly: in vitro-Test with Alternaria alternate (microtiter growth inhibition). The format is cell-based. The note with it: applied alone, 0.008 ppm. The procedure:
The degree of efficacy expressed in % is denoted: 0% means an efficacy, which corresponds to that of the control, while an efficacy of 100% means that no disease is observed.
(§1) If the actual fungicidal activity exceeds the calculated value, then the activity of the combination is super-additive, i.e. a synergistic effect exists. In this case, the efficacy, which was actually observed, must be greater than the value for the expected efficacy (E), that was calculated from the abovementioned formula.
(§2) Example: In Vitro-Test with Fungal Microorganisms
(§3) Wells of 96-well microtiter plates are filled with 10 μl of a preparation of test compound or compound combination in methanol+emulsifier alkylaryl-polyglycol-ether. Thereafter, the solvent is evaporated in a hood. At the next step, 100 μl of liquid potato dextrose medium is given into each well, that has been amended with an appropriate concentration of spores or mycelium suspension of the test fungus.
(§4) With the aid of a photometer, the extinction in all wells is measured at the wavelength of 620 nm.
(§5) The microtiter plates are incubated at 20° C. and 85% relative humidity. The inhibition of growth is determined again photometrically 3-5 days after the application. Efficacy is calculated in relation to the untreated control, 0% efficacy means fungal growth as high as in untreated control while 100% efficacy means no fungal growth is measured.
Consider `CC1CC(C)(C)c2c(F)ccc(NC(=O)c3cn(C)nc3C(F)F)c21` (centres unmarked) [Compound 2.028, inpyrfluxam], for which the Efficacy is 0%.

Still in this data set, the particulars now being: applied alone, 0.04 ppm.
As to `CC1CC(C)(C)c2c(F)ccc(NC(=O)c3cn(C)nc3C(F)F)c21` (centres unmarked) [Compound 2.028, inpyrfluxam], the Efficacy is on record as 57%.

The same data set, now with this note: applied alone, 0.2 ppm.
For `CC1CC(C)(C)c2c(F)ccc(NC(=O)c3cn(C)nc3C(F)F)c21` (centres unmarked) [Compound 2.028, inpyrfluxam], the Efficacy turned out to be 73%.

Staying with this data set, now noted: applied alone, 1.0 ppm.
With `CC1CC(C)(C)c2c(F)ccc(NC(=O)c3cn(C)nc3C(F)F)c21` (centres unmarked) [Compound 2.028, inpyrfluxam], the Efficacy was 79%.

Test system in the next data set: not listed separately
Put plainly: Measurement of Log P values by HPLC on reversed phase columns (EEC directive 79/831 Annex V.A8), methods [a], [b], [c]. The note with it: HPLC method [a]. The format is physicochemical.
Procedure: Measurement of Log P values as provided herein was performed according to EEC directive 79/831 Annex V.A8 by HPLC (High Performance Liquid Chromatography) on reversed phase columns with the following methods: • ^[a]
As for `C=C(C)c1cc(C(=O)NCC(F)(F)c2ccc(C)cc2C)c(Oc2cccc(C(F)(F)F)c2)nn1` [I-222], the LogP was 4.87^[a].
The same measure, in the same setting: the result for `O=C(NCC(F)(F)c1ccc(Br)cc1Cl)c1cc(Cl)nnc1Oc1cccc(C(F)(F)F)c1F` [I-315] reads 4.71^[a]; that for `O=C(NCC(F)(F)c1ccc(Cl)cc1)c1c(Oc2cccc(C(F)(F)F)c2)nnc(Cl)c1NC1CCCCC1` [I-272], 4.98^[a].
Still for that read-out and setting: the result for `O=C(NCC(F)(F)c1ccc(C2CC2)cc1Cl)c1cc(Cl)nnc1Oc1cccc(C(F)(F)F)c1` [I-360] reads 4.58^[a]; that for `Cc1ccc(C(F)(F)CNC(=O)c2cc(-c3ccncc3)nnc2Oc2cccc(C(F)(F)F)c2)c(C)c1` [I-316], 3.65^[a]; that for `O=C(NCC(F)(F)c1ccc(Br)cc1Cl)c1cc(C2CC2)nnc1Oc1cccc(C(F)(F)F)c1` [I-312], 4.79^[a];.
The same measure, in the same setting: the result for `COc1ccc(CCNC(=O)c2cc(Cl)nnc2Oc2cccc(C(F)(F)F)c2)cc1OC` [I-268] reads 3.26^[a].

The data set is the same for the next values; noted with them: HPLC on reversed phase column, method [a].
For `Cc1cnnc(Oc2cccc(C(F)(F)F)c2)c1C(=O)NCC(F)(F)c1ccc(Cl)cc1Cl` [I-183], the LogP is 3.78^[a].
On the same count and under the same terms, the result for `Cc1ccc(C(F)(F)CNC(=O)c2c(Oc3cccc(C(F)(F)F)c3)nnc(Cl)c2NCC(C)(C)O[Si](C)(C)C)c(C)c1` [I-064] reads 6.32^[a].
For `O=C(NCC(F)(F)c1cc(Cl)sc1Cl)c1cc(Cl)nnc1Oc1cccc(C(F)(F)F)c1` [I-825], the LogP is 4.73^[a].
Same read-out and setting: the figure for `O=C(NCCc1ccc(C(F)(F)F)cn1)c1cc(Cl)nnc1Oc1cccc(C(F)(F)F)c1` [I-068] is 3.53^[a].
On the same count and under the same terms, the result for `Cc1ccc(C(F)(F)CNC(=O)c2cc(Cl)nnc2Oc2cncc(Br)c2)c(C)c1` [I-173] reads 3.78^[a]; that for `COc1ccc(CCNC(=O)c2cc(Cl)nnc2Oc2cccc(C(F)(F)F)c2)cc1` [I-036], 3.61^[a]; that for `COc1ccc(C(F)(F)CNC(=O)c2cc(Cl)nnc2Oc2cccc(C(F)(F)F)c2)c(Cl)c1` [I-007], 4.00^[a].
On the same count and under the same terms, the figure for `O=C(NCC(F)(F)c1ccc(Cl)cn1)c1cc(Cl)nnc1Oc1cccc(C(F)(F)F)c1` [I-108] is 3.65^[a].

Still in this data set, the particulars now being: method [a].
Turning to `Cc1c(C2CC2)nnc(Oc2cccc(C(F)(F)F)c2)c1C(=O)NCC(F)(F)c1ccc(Cl)cc1Cl` [I-642], the LogP was 4.43^[a].
Turning to `Cc1ccc(C2(CNC(=O)c3cc(Cl)nnc3Oc3cccc(C(F)(F)F)c3)CC2)cc1` [I-601], the LogP was 4.58^[a].
As for `O=C(NC1CCCc2sc(Cl)cc21)c1cc(Cl)nnc1Oc1cccc(C(F)(F)F)c1` (racemic) [I-639], the LogP was 4.68^[a].
The same measure, in the same setting: the figure for `Cc1ccc(C(F)(F)CNC(=O)c2cc(CC3CCC3)nnc2Oc2cccc(C(F)(F)F)c2)c(C)c1` [I-798] is 5.02^[a]; for `O=C(NCC1CNc2ccccc21)c1cc(Cl)nnc1Oc1cccc(C(F)(F)F)c1` (racemic) [I-436] it is 2.42^[a]; for `O=C(NCCc1ccc(-c2ccncc2)cc1)c1cc(Cl)nnc1Oc1cccc(C(F)(F)F)c1` [I-542] it is 2.13^[a].
The same measure, in the same setting: the figure for `C#Cc1cc(C(=O)NCC(F)(F)c2ccc(C)cc2C)c(Oc2cccc(C(F)(F)F)c2)nn1` [I-577] is 4.31^[a]; for `COc1ccc(CCNC(=O)c2c(Oc3cccc(C(F)(F)F)c3)nnc(Cl)c2C)c(OC)c1` [I-500] it is 3.65^[a].

The same data set, now with this note: method [a]: LC-UV, acidic range, 0.1% formic acid in water and acetonitrile as eluent (10% to 95% acetonitrile); Table 3, compounds of formula (1).
On to `COC(=O)c1c(Oc2cccc(C(F)(F)F)c2)nnc(Cl)c1-n1cccn1` [Compound 1-084], for which the LogP was 3.53^[a].
On the same count and under the same terms, the result for `Cc1nnc(Oc2cccc(Cl)c2)c(C(=O)O)c1C` [Compound 1-018] reads 0.80^[a].
Same read-out and setting: the figure for `O=C(O)c1cc(C(F)(F)F)nnc1Oc1cccc(C(F)(F)F)c1` [Compound 1-057] is 2.27^[a]; for `O=C(O)c1cc(-c2ccncc2Cl)nnc1Oc1cccc(C(F)F)c1F` [Compound 1-020] it is 1.86^[a].
Consider `Cc1cc(C(=O)O)c(Oc2cncc(C(F)(F)F)c2)nn1` [Compound 1-019], for which the LogP is 1.01^[a].
Still for that read-out and setting: the figure for `Cc1nnc(Oc2cccc(C(F)F)c2F)c(C(=O)O)c1C` [Compound 1-013] is 0.96^[a]; for `Cc1c(Cl)nnc(Oc2cccc(Cl)c2F)c1C(=O)O` [Compound 1-122] it is 1.68^[a]; for `Cc1nnc(Oc2cccc(C(F)(F)F)c2F)c(C(=O)O)c1C` [Compound 1-009] it is 1.40^[a].
On the same count and under the same terms, the figure for `CC(C)OC(=O)c1cc(Cl)nnc1Oc1cccc(F)c1F` [Compound 1-011] is 3.65^[a].
Still for that read-out and setting: the figure for `Cc1cc(C(=O)O)c(Oc2cccc(C(F)F)c2)nn1` [Compound 1-098] is 1.36^[a].
As to `Cc1c(Cl)nnc(Oc2cccc(C(F)F)c2F)c1C(=O)O` [Compound 1-117], the LogP is 1.49^[a].

Still in this data set, the particulars now being: method [a]: LC-UV, acidic range, 0.1% formic acid in water and acetonitrile as eluent; Table 5, compounds of formula (2).
For `Cc1cc(C)c(C(F)(F)CN)c(F)c1` [Compound 2-03], the LogP was 0.95^[a].
On the same count and under the same terms, the result for `NCC(F)(F)c1cccc(Br)c1Cl` [Compound 2-04] reads 0.87^[a]; that for `NCC(F)c1ccc(I)cc1` (racemic) [Compound 2-05], 0.73^[a].
Still for that read-out and setting: the figure for `C#Cc1ccc(C(F)(F)CN)c(C)c1` [Compound 2-01] is 0.93^[a]; for `NCC(F)c1ccc(C2CC2)cc1Cl` (racemic) [Compound 2-07] it is 1.15^[a].

The data set is the same for the next values; noted with them: reversed-phase HPLC column, HPLC on reversed phase column, method [a].
As usually defined, the chromatographic logP is a lipophilicity value derived from retention on a column. In turn, `COCCc1c(Cl)nnc(Oc2cccc(C(F)(F)F)c2)c1C(=O)NCC(F)(F)c1ccc(Br)cc1Cl` [Compound I-070, N-[2-(4-bromo-2-chloro-phenyl)-2,2-difluoro-ethyl]-6-chloro-5-(2-methoxyethyl)-3-[3-(trifluoromethyl)phenoxy]pyridazine-4-carboxamide] displayed a chromatographic logP of 4.77.

The same data set, now with this note: reversed-phase HPLC column, method [a].
Turning to `CSc1cc(C(=O)NCC(F)(F)c2ccc(C)cc2C)c(Oc2cccc(C(F)(F)F)c2)nn1` [Compound I-767, N-[2-(2,4-dimethylphenyl)-2,2-difluoro-ethyl]-6-methylsulfanyl-3-[3-(trifluoromethyl)phenoxy]pyridazine-4-carboxamide], the chromatographic logP is 4.72.
For the compound `O=C(NCC(F)(F)c1ccc(Br)cc1Cl)c1cc(Cl)nnc1Oc1cccc(F)c1F` [Compound I-530, N-[2-(4-bromo-2-chloro-phenyl)-2,2-difluoro-ethyl]-6-chloro-3-(2,3-difluorophenoxy)pyridazine-4-carboxamide], the chromatographic logP was found to be 4.27.

Still in this data set, the particulars now being: reversed-phase HPLC column, method [a]: LC-UV, acidic range, 0.1% formic acid in water and acetonitrile as eluent (10% to 95% acetonitrile); Table 3, compounds of formula (1).
In turn, `COC(=O)c1cc(Cl)nnc1Oc1cccc(C(F)(F)F)n1` [Compound 1-071] came in with a chromatographic logP of 2.69.
On the same count and under the same terms, the figure for `CCOC(=O)c1cc(C)nnc1Oc1cncc(C(F)(F)F)c1` [Compound 1-036] is 2.37.
On the same count and under the same terms, the result for `CCOC(=O)c1cc(C)nnc1Oc1cccc(C2CC2)c1F` [Compound 1-112] reads 3.29; that for `Cc1c(Cl)nnc(Oc2cccc(Cl)c2)c1C(=O)O` [Compound 1-002, 6-chloro-3-(3-chlorophenoxy)-5-methyl-pyridazine-4-carboxylic acid], 1.39.
`CCOC(=O)c1cc(Cl)nnc1Oc1cncc(C(F)(F)F)c1` [Compound 1-088] yielded a chromatographic logP of 3.
The same measure, in the same setting: the figure for `COCCc1c(Cl)nnc(Oc2cccc(C(F)(F)F)c2)c1C(=O)O` [Compound 1-026, 6-chloro-5-(2-methoxyethyl)-3-[3-(trifluoromethyl)phenoxy]pyridazine-4-carboxylic acid] is 1.74; for `COC(=O)c1c(Oc2cccc(C3CC3)c2F)nnc(Cl)c1C` [Compound 1-101] it is 3.7; for `C=Cc1c(Cl)nnc(Oc2cccc(C(F)(F)F)c2)c1C(=O)OC` [Compound 1-069, methyl 6-chloro-3-[3-(trifluoromethyl)phenoxy]-5-vinyl-pyridazine-4-carboxylate] it is 3.94.

The same data set, now with this note: reversed-phase HPLC column; method [b]: LC-UV, neutral range, 0.001 molar ammonium acetate solution in water and acetonitrile as eluent (10% to 95% acetonitrile); Table 3, compounds of formula (1).
In turn, `CCOC(=O)c1cc(Cl)nnc1Oc1cncc(C2CC2)c1` [Compound 1-076] registered a chromatographic logP of 2.6.

The test system of the next data set is Diaporthe citri. The data set can be described thus: in vitro-Test with Diaporthe citri (microtiter growth inhibition). The format is cell-based. The note with it: applied alone, 0.008 ppm. As to the method: as §1, §2, §3, §4, §5
As for `CC1CC(C)(C)c2c(F)ccc(NC(=O)c3cn(C)nc3C(F)F)c21` (centres unmarked) [Compound 2.028, inpyrfluxam], the Efficacy was 0% and 7%.

The data set is the same for the next values; noted with them: applied alone, 0.04 ppm.
`CC1CC(C)(C)c2c(F)ccc(NC(=O)c3cn(C)nc3C(F)F)c21` (centres unmarked) [Compound 2.028, inpyrfluxam]: the Efficacy worked out at 23%.

The same data set, now with this note: applied alone, 0.2 ppm.
With `CC1CC(C)(C)c2c(F)ccc(NC(=O)c3cn(C)nc3C(F)F)c21` (centres unmarked) [Compound 2.028, inpyrfluxam], the Efficacy was 47% and 32%.

The same data set, now with this note: applied alone, 1.0 ppm.
On to `CC1CC(C)(C)c2c(F)ccc(NC(=O)c3cn(C)nc3C(F)F)c21` (centres unmarked) [Compound 2.028, inpyrfluxam], for which the Efficacy was 92% and 94%.
